# Source: ChEMBL document CHEMBL3603834, “Syntheses and Biological Evaluation of Costunolide, Parthenolide, and Their Fluorinated Analogues” (J Med Chem, 2015)
# Columns and labels:
# [1] = Cytotoxicity against human KG1a cells; type: functional, cell-based; settings: KG-1a
# [2] = Chemical stability of the compound in p-toluenesulfonic acid in dichloromethane after 48 hrs; type: physicochemical
# [3] = test system: HL-60; assay: Cytotoxicity against human HL60 cells; type: functional, cell-based
# [4] = test system: C6; assay: Cytotoxicity against rat C6 cells; type: functional, cell-based
# [5] = test system: HL-60; assay: Cytotoxicity against human HL60/A cells; type: functional, cell-based
# [6] = Half life in rat plasma; type: ADME, cell-free
# [7] = Metabolic stability in rat plasma assessed as compound degradation after 420 mins; type: ADME, cell-free; settings: read-out: Drug degradation
# [8] = Half life in human liver microsomes by HPLC-MS/MS analysis in presence of NADPH; type: ADME
SMILES,IC50 [1],Stability [2],IC50 [3],IC50 [4],IC50 [5],half-life [6],metabolised at 7 h [7],half-life [8]
C=C1C(=O)O[C@H]2[C@H]1CC/C(CF)=C\CC[C@@]1(C)O[C@@H]21,2.9 µM,Stable,2 µM,2.8 µM,1.5 µM,,,
C/C1=C\CC[C@@]2(C)O[C@H]2[C@H]2OC(=O)[C@@H](C)[C@@H]2CC1,,,,,,> 7 h,20%,
C=C1C(=O)O[C@@H]2/C=C(\C)CC/C=C(\C)CC[C@@H]12 [COSTUNOLIDE],4.1 µM,,2.1 µM,4.1 µM,5.9 µM,,,
C=C1CC[C@H]2C(=C)C(=O)O[C@@H]2[C@@H]2O[C@]2(C)CCC1F (some centres undefined),8.6 µM,Stable,11.9 µM,11.3 µM,9.2 µM,,,
C=C1C(=O)O[C@H]2[C@H]1CC/C(C(F)F)=C\CC[C@@]1(C)O[C@@H]21,1.8 µM,Stable,2 µM,3.4 µM,2.1 µM,,,
C=C1C(=O)O[C@@H]2/C=C(\C)CC/C=C(/C(F)(F)F)CC[C@@H]12,5.1 µM,,5 µM,5.4 µM,4.9 µM,,,
C=C1C(=O)O[C@@H]2C3O[C@]3(C)CC/C=C(\C)CC[C@@H]12 (some centres undefined),2.3 µM,Unstable,2 µM,2.5 µM,2 µM,0.278 h,,1.39 h
C=C1C(=O)O[C@H]2[C@H]1CC/C(C(F)(F)F)=C\CC[C@@]1(C)O[C@@H]21,2 µM,Stable,2.1 µM,3 µM,2 µM,0.338 h,,1.43 h
